Assay results reported in patent US5639729A, “Tripeptides useful in immune and CNS therapy” (Immunobiology Research Institute, Inc., priority 1993, dated 1997).

Columns and labels:
[1] = system: insulin-induced ACTH secretion; assay: Effect of peptide on insulin-induced ACTH secretion (insulin challenge); assay type: in vivo, Sprague-Dawley rats; settings: insulin 0.5 IU/kg intraperitoneally, 30 minutes, rats pretreated with saline by oral gavage or s.c. injection; from 16.8±0.8 pg/ml
Procedure: As mentioned above, the administration of insulin can be used as a provocative challenge test to determine how an organism responds to stress and how the response can be manipulated. It was shown in FIG. 1 that, in rats, administration of insulin causes an increase in plasma concentrations of ACTH.
Adult male Sprague-Dawley rats were used in these experiments. After an overnight fast, the peptide or saline was administered by oral gavage or by subcutaneous injection to the experimental subjects. Doses of the peptide ranged from 0.1 to 10 mg/kg by the oral route and 0.03 to 3.0 mg/kg by the subcutaneous route. […] all animals were treated with insulin (0.5 IU/kg) and were sacrificed by decapitation 30 minutes later. As above, trunk blood was collected in polypropylene tubes containing 400 μl of 10% EDTA at 4° C. Plasma was separated by centrifugation and stored at -80° C. until being used for ACTH determinations, ACTH concentrations were determined by RIA as described by Nicholson et al, cited above, using antiserum [IgG Corporation] and ^125 I-labelled ACTH [ICN Corporation].

[2] = system: ACTH secretion; assay: Actions of insulin on ACTH secretion; assay type: in vivo, Sprague-Dawley rats; settings: 30 minutes, fasted male rats
Procedure: To determine whether a drug can modify stress responses, the stress response itself must be characterized. To accomplish this goal, adult male Sprague-Dawley rats [Charles River, Kingston, N.Y.] were treated with increasing doses of insulin [Humulin, Eli Lilly Co.] ranging from 0.05 to 5 IU/kg or saline intraperitoneally after an overnight fast. Thirty minutes after administering insulin, the animals were sacrificed by decapitation and trunk blood was collected into polypropylene tubes containing 400 μl of 10% EDTA at 4° C. The plasma was separated by centrifugation and stored at -80° C. until being used for ACTH determinations. Plasma concentrations of ACTH were determined by radioimmunoassay using antiserum [IgG Corporation, Nashville, Tenn.] and ^125 I-labelled ACTH [ICN Corporation, Costa Mesa, Calif.] as described by Nicholson et al, Clin. Chem., 30:259-265 (1984).

For “insulin: insulin [Humulin, Eli Lilly Co.], used as provocative challenge to raise plasma ACTH in rats”, the “plasma ACTH concentrations” value [1] was “approximately 200 pg/ml”, the “plasma ACTH levels” value ([2]; insulin 0.05 IU/kg intraperitoneally) was “not elevated” and the “plasma ACTH concentrations” value ([2]; insulin 0.1 IU/kg intraperitoneally) was “significantly greater than in vehicle treated controls”. For the same substance, the ACTH responses ([2]; insulin doses higher than 0.1 IU/kg up to 5 IU/kg intraperitoneally) was “commensuratively greater ACTH responses”.
